In patent publication US20230157996A1, “SMALL-MOLECULE INHIBITOR TARGETING EB VIRUS NUCLEAR ANTIGEN PROTEIN, PREPARATION METHOD AND USE THEREOF” (priority 2020, published 2023):

Each compound was assayed on C666-1 cells (assay: C666-1 cell viability single concentration (50 μM) inhibition rate (Resazurin)). Conditions: Homo sapiens, C6661, 72 h, 50 μM compound, 72 hours, C666-1 cells; read-out: C666-1 cell viability single concentration (50 μM) inhibition rate, Ratio* (Inh %).
Assay type: cell-based
Procedure, shortened: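 EBV-positive C666-1 cells (5×10^3/well), pre-cultured 24 h, were exposed to compound at 50 μmol/L final for 72 h at 37° C, 5% CO2, in duplicate. Viability by resazurin (3 h, ex 560/em 590 nm); inhibition rate computed relative to DMSO control and medium-only blank.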
`O=C(Nc1ccc(OC2CN(c3cccc(C(=O)O)c3-n3cccc3)C2)cc1)Nc1ccc(C(F)(F)F)cc1` [Example 230, 3-(3-(4-(3-(4-(trifluoromethyl)phenyl)ureido)phenoxy)azetidin-1-yl)-2-(1H-pyrrol-1-yl)benzoic acid] showed an inhibition at 50 µM of 10 to 30%.
In the case of `O=C(NCc1cccs1)c1cccc(N2CC(Oc3ccc(CO)cc3)C2)c1-n1cccc1` [Example 231, N-(thiophen-2-yl-methyl)-3-(3-(4-(hydroxymethyl)phenoxy)azetidin-1-yl)-2-(1H-pyrrol-1-yl)benzamide], the inhibition at 50 µM is reported as 10 to 30%.
Compound `CCOCc1ccc(OC2CN(c3cccc(C(=O)OCC)c3-n3cccc3)C2)cc1` [Example 232, Ethyl 3-(3-(4-(ethoxymethyl)phenoxy)azetidin-1-yl)-2-(1H-pyrrol-1-yl)benzoate] has an inhibition at 50 µM of less than 10%.
`CCOCc1ccc(OC2CN(c3cccc(C(=O)O)c3-n3cccc3)C2)cc1` [Example 233, 3-(3-(4-(ethoxymethyl)phenoxy)azetidin-1-yl)-2-(1H-pyrrol-1-yl)benzoic acid] was tested, and the inhibition at 50 µM was less than 10%.
`COC(=O)c1cccc(N2CC(Oc3ccc(CN4CCOCC4)cc3)C2)c1-n1cccc1` [Example 235, Methyl 3-(3-(4-(morpholinylmethyl)phenoxy)azetidin-1-yl)-2-(1H-pyrrol-1-yl)benzoate] gave an inhibition at 50 µM of 30 to 50%.
`COC(=O)c1cccc(N2CC(Oc3ccc(COC(=S)Nc4ccc(Cl)cc4)cc3)C2)c1-n1cccc1` [Example 236, Methyl 3-(3-(4-((((4-chlorophenyl)thiocarbamoyl)oxy)methyl)phenoxy)azetidin-1-yl)-2-(1H-pyrrol-1-yl)benzoate] gave an inhibition at 50 µM of 10 to 30%.
With `O=C(Nc1ccc(Cl)cc1)OCc1ccc(OC2CN(c3cccc(C(=O)O)c3-n3cccc3)C2)cc1` [Example 237] the inhibition at 50 µM was less than 10%.
`CCNC(=S)OCc1ccc(OC2CN(c3cccc(C(=O)OC)c3-n3cccc3)C2)cc1` [Example 238] was tested, and the inhibition at 50 µM was 10 to 30%.
In the case of `CCNC(=S)OCc1ccc(OC2CN(c3cccc(C(=O)O)c3-n3cccc3)C2)cc1` [Example 239], the inhibition at 50 µM is reported as less than 10%.
Work on `COC(=O)c1cccc(N2CC(Oc3ccc(COc4ccc(Cl)cc4)cc3)C2)c1-n1cccc1` [Example 240, Methyl 3-(3-(4-((4-chlorophenoxy)methyl)phenoxy)azetidin-1-yl)-2-(1H-pyrrol-1-yl)benzoate] yielded an inhibition at 50 µM of less than 10%.
Compound `O=C(O)c1cccc(N2CC(Oc3ccc(COc4ccc(Cl)cc4)cc3)C2)c1-n1cccc1` [Example 241, 3-(3-(4-((4-chlorophenoxy)methyl)phenoxy)azetidin-1-yl)-2-(1H-pyrrol-1-yl)benzoic acid] has an inhibition at 50 µM of less than 10%.
`COC(=O)c1cccc(N2CC(Oc3ccc(CNC(=O)NC4CC4)cc3)C2)c1-n1cccc1` [Example 242, Methyl 3-(3-(4-((3-cyclopropylureido)methyl)phenoxy)azetidin-1-yl)-2-(1H-pyrrol-1-yl)benzoate] was tested, and the inhibition at 50 µM was 10 to 30%.
For `COC(=O)c1cccc(N2CC(Oc3ccc(COc4cccnc4)cc3)C2)c1-n1cccc1` [Example 243, Methyl 3-(3-(4-((pyridin-3-yl-oxy)methyl)phenoxy)azetidin-1-yl)-2-(1H-pyrrol-1-yl)benzoate], the inhibition at 50 µM was greater than 50%.
`O=C(O)c1cccc(N2CC(Oc3ccc(COc4cccnc4)cc3)C2)c1-n1cccc1` [Example 244, 3-(3-(4-((pyridin-3-yl-oxy)methyl)phenoxy)azetidin-1-yl)-2-(1H-pyrrol-1-yl)benzoic acid] was tested, and the inhibition at 50 µM was 30 to 50%.
With `COC(=O)c1cccc(N2CC(Oc3ccc(COc4ccc(F)cc4)cc3)C2)c1-n1cccc1` [Example 245, Methyl 3-(3-(4-((4-fluorophenoxy)methyl)phenoxy)azetidin-1-yl)-2-(1H-pyrrol-1-yl)benzoate] the inhibition at 50 µM was less than 10%.
Compound `O=C(O)c1cccc(N2CC(Oc3ccc(COc4ccc(F)cc4)cc3)C2)c1-n1cccc1` [Example 246, 3-(3-(4-((4-fluorophenoxy)methyl)phenoxy)azetidin-1-yl)-2-(1H-pyrrol-1-yl)benzoic acid] has an inhibition at 50 µM of less than 10%.
